Measured values: EP0967201A1, “Pharmaceutical agents containing sulfonamids as matrix metalloproteinase inhibitors” (Roche Diagnostics GmbH, priority 1998, dated 1999)

How the values were obtained:
[1] = target: T1, MMP-8 (Homo sapiens, UniProt P22894); experiment: MMP inhibition enzyme assay (initial reaction rate, standard substrate DNP-Pro-Leu-Gly-Leu-Trp-Ala-D-Arg-NH2); format: biochemical; conditions: 8 nM catalytic domain (Met80-Gly242) of human neutrophil collagenase; 10 microM substrate; pH 7.6; read-out: MMP-8 Inhib. [%] IC50
T1 construct: catalytic domain (Met80-Gly242) of human neutrophil collagenase; made in house
Method: (§1) In order to determine the inhibition of MMPs, for example MMP-8, the catalytic domain (isolation and purification see for example Schnierer, S., Kleine, T., Gote, T., Hillemann, A., Knäuper, V., Tschesche, H.,Biochem. Biophys. Res. Commun. (1993) 191, 319-326) is incubated with inhibitors having various concentrations. Subsequently, the initial reaction rate in the conversion of a standard substrate is measured in a manner analogous to Grams F. et al., FEBS 335 (1993) 76-80). Alternatively the percent inhibition will be determined at a distant inhibitor concentration.
(§2) The assays for other MMPs are performed in a analogous manner. • Assay buffer: 50 mM Tris/HCI pH 7.6 (Tris= Tris-(hydroxymethyl)-aminomethan) 100 mM NaCl/10 mM CaCl2-/5% MeOH (if necessary) • Enzyme: 8 nM catalytic domain (Met80-Gly242) of human neutrophil collagenase • Substrate: 10 microM DNP-Pro-Leu-Gly-Leu-Trp-Ala-D-Arg-NH2 • Total assay volume: 1 ml

[2] = target: MMP-9 (Homo sapiens, UniProt P14780); experiment: MMP inhibition enzyme assay, performed in an analogous manner to MMP-8; format: biochemical; conditions: compound concentration 0.21 µM (100 ng/ml); read-out: MMP-9 Inhib. [%]
Method: as §1, §2

T1 sequence (P22894 100-262 limits assumed): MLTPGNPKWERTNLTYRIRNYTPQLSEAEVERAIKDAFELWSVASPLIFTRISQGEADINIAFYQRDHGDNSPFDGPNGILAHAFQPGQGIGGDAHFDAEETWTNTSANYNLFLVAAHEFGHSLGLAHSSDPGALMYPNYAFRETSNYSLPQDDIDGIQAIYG
Sequence of MMP-9 (P14780 94-707, species assumed): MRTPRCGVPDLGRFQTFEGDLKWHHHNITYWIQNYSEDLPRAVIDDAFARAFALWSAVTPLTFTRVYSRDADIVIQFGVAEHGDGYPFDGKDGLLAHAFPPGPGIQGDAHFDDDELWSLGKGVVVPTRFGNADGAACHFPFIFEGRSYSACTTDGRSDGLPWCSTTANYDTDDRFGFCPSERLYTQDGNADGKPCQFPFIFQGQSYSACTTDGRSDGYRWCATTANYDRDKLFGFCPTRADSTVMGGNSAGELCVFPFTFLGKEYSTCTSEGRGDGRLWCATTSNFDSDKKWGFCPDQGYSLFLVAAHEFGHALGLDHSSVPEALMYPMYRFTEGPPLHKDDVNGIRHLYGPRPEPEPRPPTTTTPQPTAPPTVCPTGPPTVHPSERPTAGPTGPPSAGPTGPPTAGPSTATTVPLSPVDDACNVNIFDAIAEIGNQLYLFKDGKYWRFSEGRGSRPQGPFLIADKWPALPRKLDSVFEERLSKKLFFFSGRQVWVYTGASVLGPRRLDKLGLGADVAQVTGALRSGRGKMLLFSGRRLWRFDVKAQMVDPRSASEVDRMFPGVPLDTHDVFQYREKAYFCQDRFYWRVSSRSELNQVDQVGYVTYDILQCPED

| Compound | IC50 [1] [nM] | inhibition at 0.21 µM [2] [%] |
| --- | --- | --- |
| O=C(O)[C@H](CSCc1ccccc1)NS(=O)(=O)c1ccc(-c2ccc(Cl)cc2)cc1 [Example 1, N-(p-Chloro-biphenylsulfonyl)-S-benzyl-cysteine] | 21.6 |  |
| O=C(C[C@H](NS(=O)(=O)c1ccc(-c2ccc(Cl)cc2)cc1)C(=O)O)OCc1ccccc1 [Example 2, L-N-(p-Chlorobiphenylsulfonyl)-aspartic acid-β-benzylester] | 48.7 | 38 |
